Values belong to the molecule of their own block, whether it stands above or below them.
Key:
[1] = system: spontaneous tumors; details: 10 mg by gavage; X-ray imaging about two hours after; mice with spontaneous tumors; same mice before treatment showed no foci
Source text: As described above, oxidative foci or tumors may be identified by X-ray radiographic imaging of animals following administration of an indigogenic compound of the present invention. The radio-opaque indigo-like product formed and deposited with residence time in FROS-containing tumor tissues may then be detected.
In this example, female C3H/HeN mice were obtained as multiparous retired breeders (i.e., after 3 to 4 litters) that were positive for a mammary tumor virus. See, e.g., Sellitti, D. F., Tseng, Y-C., and Latham, K. R., “Effect of 3,5,3′-Triiodo-L-thyronine on the Incidence and Growth Kinetics of Spontaneous Mammary Tumors in C3H/HeN Mice,” Cancer Research, 41: 5015-19 (1981), the entire contents and disclosure of which are incorporated herein by reference. Mice showing spontaneous tumors were given 10 mg of 5-Iodo-Indoxyl-3′,5′-Diiodo-4′-hydroxy ether substrate (product of Example 4) by gavage. These mice were then subjected to X-ray imaging of the tumors about two hours after being fed the iodo-indigogenic compound. […] When developed, the X-ray film appears dark in areas where more transmission occurs and light in areas where less transmission occurs.

[2] = system: sites of the wound or injury; details: mice with small injuries or wounds (cuts, scratches); data not shown
[3] = Cleavage of C—C bond during oxidative dehalogenation reaction; type: physicochemical; details: oxidative or free radical-mediated dehalogenation
Source text: It has also been discovered that other types of bonds or linkages may also be cleaved by oxidative or free radical-mediated dehalogenation of the phenol ring. For example, as described herein, it has now been observed that a carbonyl linkage, a nitrogen linkage, a sulfinyl linkage and possibly a C—C bond on the phenol ring may also be cleaved by the oxidative dehalogenation reaction. These bonds are also considered stable, and their cleavage in connection with the dehalogenation reaction is surprising as well. One caveat with the C—C bond or linkage is that depending on the particular starting compound structure and the substituents or groups attached to the halogenated phenol ring via the C—C bond, the C—C bond or linkage may or may not be generally cleaved during or following the dehalogenation reaction (see below). […] However, other compounds do become cleaved. It is important to note that whether a C—C bond of a particular starting compound is “cleavable,” or becomes cleaved, may not be all-or-nothing (i.e., the C—C bond may be considered non-cleavable even though a small or minute amount of cleavage may occur, and vice versa). Thus, the amount or percentage of cleavage may be partial with the alternatively cleaved or non-cleaved product being possibly undetected or minute. […]

[4] = Spontaneous ether cleavage and deiodination in buffered aqueous solution exposed to sunlight; type: physicochemical; details: about 1 mM in carbonate buffer (pH 8.0), sunlight for about one hour
Source text: In contrast to reductive deiodination, spontaneous dehalogenation (e.g., deiodination) of a halogentated phenol ring in the presence of an oxidizing agent(s) and/or free radical(s) with cleavage of a chemical linkage, such as an ether linkage, etc., between the phenol ring and a conjugated compound has not been described. According to the present invention, cleavage of the ether linkage between the aromatic rings of thyroid hormone may form visibly colored quinone and iodine-containing products in buffered aqueous solutions in vitro, and this ether cleavage reaction may be accelerated under basic pH conditions and with exposure to ionizing radiation or light. These conditions favor the increased formation of oxidizing agents and/or free radicals, which are believed to promote the reaction. […] A quinone and an iodotyrosine product are also formed by cleavage of the ether linkage during the reaction. According to embodiments of the present invention, a spontaneous reaction of dehalogenation and cleavage of a chemical bond is proposed for the targeted delivery and release of a drug compound at or to sites of inflammation or disease. This spontaneous reaction is further proposed as a basis for scavenging free radicals and/or oxidative agents (FROS) as well as for the creation of a detectable compound(s) that may be used for diagnostic purposes.

SMILES: Oc1c(I)cc(Oc2c[nH]c3ccc(I)cc23)cc1I [Example 4, 5-Iodo-Indolyl-3′,5′-Diiodo-4′-hydroxyl-p-Phenol Ether]
radio-opaque tumor regions or foci by X-ray [1]: radio-opaque tumor regions or foci
X-ray detection at sites of wound or injury [2]: strong detection was observed at the sites of the wound or injury

cleavage of C—C bond with the dehalogenation reaction [3]: generally not to be cleaved
SMILES: N[C@@H](Cc1ccc(O)c(I)c1)C(=O)O [MIT, 3-iodo-4-hydroxy-L-phenylalanine]

SMILES: N[C@@H](Cc1cc(I)c(Oc2cc(I)c(O)c(I)c2)c(I)c1)C(=O)O [thyroxine]
cleavage of ether linkage with iodide release [4]: the ether linkage is broken spontaneously
